Laboratory results as given in ChEMBL document CHEMBL1201862, “PubChem BioAssay data set” (2004).
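Five concentrations, 48 hours, 96-well plates. GI50 = concentration required for 50% inhibition of growth.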 Calls of active or inactive are those of the source. No stated cut-off is given here; in the data, active = GI50 up to about 1.1 µM and inactive = higher.

Tests used:
Assay in all cases: growth of human tumour cells (NCI), 48 h
[1] = test system: Hs-578T
[2] = test system: OVCAR-5
[3] = test system: 786-0
[4] = test system: NCI-H226
[5] = test system: MDA-MB-231
[6] = test system: SR
[7] = test system: MDA-N
[8] = test system: OVCAR-4
[9] = test system: SF-539
[10] = test system: UACC-62
[11] = test system: HOP-62
[12] = test system: NCI-H23
[13] = test system: NCI-H522
[14] = test system: MCF7
[15] = test system: SF-268
[16] = test system: EKVX
[17] = test system: SNB-75
[18] = test system: Malme-3M
[19] = test system: MOLT-4
[20] = test system: HCC 2998

Row | SMILES | GI50 [1] | GI50 [2] | GI50 [3] | GI50 [4] | GI50 [5] | GI50 [6] | GI50 [7] | GI50 [8] | GI50 [9] | GI50 [10] | GI50 [11] | GI50 [12] | GI50 [13] | GI50 [14] | GI50 [15] | GI50 [16] | GI50 [17] | GI50 [18] | GI50 [19] | GI50 [20]
1 | c1cc2c(cc1C(N1CCNCC1)N1CCNCC1)OCO2 | > 100 µM (inactive) | > 100 µM (inactive) | > 100 µM (inactive) | > 100 µM (inactive) | > 100 µM (inactive) | 9.64 µM (inactive) | > 100 µM (inactive) | > 100 µM (inactive) | > 100 µM (inactive) | > 100 µM (inactive) | > 100 µM (inactive) | > 100 µM (inactive) | > 100 µM (inactive) | > 100 µM (inactive) | > 100 µM (inactive) | > 100 µM (inactive) | > 100 µM (inactive) | > 100 µM (inactive) |  | 
2 | COc1cc2c3c(n(C)c(=O)c2cc1OC)-c1cc2c(cc1/C3=C\CCCCCBr)OCO2 | > 100 µM (inactive) | 67.9 µM (inactive) | 5.77 µM (inactive) |  | 40.3 µM (inactive) | 0.43 µM (active) | 34.8 µM (inactive) | 26.9 µM (inactive) |  |  |  | 10.6 µM (inactive) | 3.73 µM (inactive) | 3.5 µM (inactive) | 4.31 µM (inactive) | 22.3 µM (inactive) | 12.1 µM (inactive) |  | 1.45 µM (inactive) | 
3 | c1ccc(N/N=N/c2ccc(-c3nc4ccccc4[nH]3)cc2)nc1 | 19.8 µM (inactive) | 26.3 µM (inactive) | 14.4 µM (inactive) | 26.3 µM (inactive) | 12.6 µM (inactive) | 2.12 µM (inactive) | 16.7 µM (inactive) | 17.8 µM (inactive) | 17.1 µM (inactive) |  | 16.6 µM (inactive) | 31.8 µM (inactive) | 16.8 µM (inactive) | 11.3 µM (inactive) |  | 17.3 µM (inactive) | 21.6 µM (inactive) | 15.6 µM (inactive) | 4.43 µM (inactive) | 
4 | CCCCCC(=O)CCCCCCCC(O)CC(=O)OCC (stereo not drawn) | > 100 µM (inactive) | > 100 µM (inactive) | > 100 µM (inactive) | > 100 µM (inactive) | > 100 µM (inactive) | > 100 µM (inactive) | > 100 µM (inactive) |  | > 100 µM (inactive) |  | > 100 µM (inactive) | > 100 µM (inactive) | > 100 µM (inactive) | > 100 µM (inactive) | > 100 µM (inactive) |  |  | > 100 µM (inactive) | > 100 µM (inactive) | > 100 µM (inactive)
5 | CC(C)CCCC(C)[C@H]1CCC2[C@@H]3CCC4Cc5nc6c(nc5C[C@]4(C)C3CC[C@@]21C)CC1CC[C@@H]2C(CC[C@@]3(C)C2CC[C@@H]3O)[C@@]1(C)C6 (stereo partly drawn) | > 100 µM (inactive) | > 100 µM (inactive) | 87.1 µM (inactive) | > 100 µM (inactive) | > 100 µM (inactive) | > 100 µM (inactive) | > 100 µM (inactive) | > 100 µM (inactive) | > 100 µM (inactive) | > 100 µM (inactive) | > 100 µM (inactive) | > 100 µM (inactive) |  | > 100 µM (inactive) | > 100 µM (inactive) | > 100 µM (inactive) | 62.2 µM (inactive) | > 100 µM (inactive) | > 100 µM (inactive) | 
6 | Cc1cc(C)n(C(C)(C(=O)Cc2ccccc2)n2nc(C)cc2C)n1 | > 100 µM (inactive) | > 100 µM (inactive) | > 100 µM (inactive) | > 100 µM (inactive) | > 100 µM (inactive) | > 100 µM (inactive) | > 100 µM (inactive) | > 100 µM (inactive) | > 100 µM (inactive) | > 100 µM (inactive) | > 100 µM (inactive) | > 100 µM (inactive) | > 100 µM (inactive) | > 100 µM (inactive) | > 100 µM (inactive) | > 100 µM (inactive) |  | > 100 µM (inactive) | > 100 µM (inactive) | > 100 µM (inactive)
7 | O=C1C=C(N2CCN(c3ncccn3)CC2)C(=O)c2c(O)ccc(O)c21 | 27.6 µM (inactive) | > 100 µM (inactive) | 53 µM (inactive) | > 100 µM (inactive) | > 100 µM (inactive) | > 100 µM (inactive) | 14.5 µM (inactive) | > 100 µM (inactive) | 21.6 µM (inactive) | 16.2 µM (inactive) | 49.2 µM (inactive) | > 100 µM (inactive) | > 100 µM (inactive) | > 100 µM (inactive) | > 100 µM (inactive) | > 100 µM (inactive) |  | 6.35 µM (inactive) | > 100 µM (inactive) | > 100 µM (inactive)
8 | CN(C)CCCNc1ccc([N+](=O)[O-])c2nc3ccccc3c(N)c12 | 3.33 µM (inactive) | 2.49 µM (inactive) | 0.385 µM (active) | 5.14 µM (inactive) | 0.598 µM (active) | 0.23 µM (active) | 0.458 µM (active) | 0.169 µM (active) | 0.449 µM (active) | 1.25 µM (inactive) | 2.36 µM (inactive) | 0.9 µM (active) |  | 0.459 µM (active) | 0.839 µM (active) | 0.755 µM (active) |  | 0.51 µM (active) | 0.278 µM (active) | 
9 | COc1ccc2[nH]cc(CCNC(=O)[C@H](Cc3ccc(O)cc3)NC(=O)[C@@H](NCC(F)(F)F)C(C)C)c2c1 | 31 µM (inactive) | > 100 µM (inactive) | > 100 µM (inactive) | 41.8 µM (inactive) | > 100 µM (inactive) | > 100 µM (inactive) | 45.1 µM (inactive) | 40 µM (inactive) | > 100 µM (inactive) | > 100 µM (inactive) | > 100 µM (inactive) | > 100 µM (inactive) | 26.5 µM (inactive) | 35.5 µM (inactive) |  | 99.8 µM (inactive) |  | > 100 µM (inactive) | 68.5 µM (inactive) | 
10 | CN1CCN(C(=S)N(C)C(=O)c2cccs2)CC1 | > 100 µM (inactive) | > 100 µM (inactive) | > 100 µM (inactive) | > 100 µM (inactive) | > 100 µM (inactive) | > 100 µM (inactive) | > 100 µM (inactive) | > 100 µM (inactive) |  | > 100 µM (inactive) |  | > 100 µM (inactive) | > 100 µM (inactive) | > 100 µM (inactive) |  |  |  | > 100 µM (inactive) | > 100 µM (inactive) | > 100 µM (inactive)
11 | CCC(C)NC(=S)N/N=C(\C)c1ccccn1 (stereo not drawn) | 0.396 µM (active) | 0.0991 µM (active) | 0.171 µM (active) | 0.102 µM (active) | 0.0543 µM (active) | < 0.01 µM (active) | 0.57 µM (active) | 1.31 µM (inactive) | 0.906 µM (active) | 0.0733 µM (active) | 0.0348 µM (active) | < 0.021 µM (active) |  | < 0.01 µM (active) | 0.351 µM (active) | < 0.01 µM (active) | 0.452 µM (active) | 1.83 µM (inactive) | < 0.01 µM (active) | 0.447 µM (active)
12 | CC1OC2(CC(OCc3ccccc3)C1OCc1ccccc1)OCCO2 (stereo not drawn) | 17.4 µM (inactive) | 51.3 µM (inactive) | 61.5 µM (inactive) | 82.6 µM (inactive) | 37 µM (inactive) | 21.1 µM (inactive) | 55.1 µM (inactive) | 76.7 µM (inactive) | > 100 µM (inactive) | 56.9 µM (inactive) | > 100 µM (inactive) | 35 µM (inactive) | 31.2 µM (inactive) | 66.2 µM (inactive) | 60.1 µM (inactive) | 35.6 µM (inactive) |  | > 100 µM (inactive) | 27.3 µM (inactive) | 71.8 µM (inactive)
13 | CN(C)C(=O)C1CCN(Cc2c[nH]c3ccccc23)CC1 | > 100 µM (inactive) | > 100 µM (inactive) | > 100 µM (inactive) | > 100 µM (inactive) | > 100 µM (inactive) | > 100 µM (inactive) | > 100 µM (inactive) | > 100 µM (inactive) |  | > 100 µM (inactive) | > 100 µM (inactive) | > 100 µM (inactive) | > 100 µM (inactive) | > 100 µM (inactive) | > 100 µM (inactive) | > 100 µM (inactive) | > 100 µM (inactive) | > 100 µM (inactive) | > 100 µM (inactive) | 
14 | C[C@]12CC[C@@H]3c4ccc(O)cc4CC[C@H]3[C@@H]1CC[C@@H]2OP(=O)(O)O | > 100 µM (inactive) | > 100 µM (inactive) | > 100 µM (inactive) | > 100 µM (inactive) | > 100 µM (inactive) |  | > 100 µM (inactive) | > 100 µM (inactive) | > 100 µM (inactive) | > 100 µM (inactive) | > 100 µM (inactive) | > 100 µM (inactive) | > 100 µM (inactive) | > 100 µM (inactive) | > 100 µM (inactive) | > 100 µM (inactive) | > 100 µM (inactive) | > 100 µM (inactive) | > 100 µM (inactive) | > 100 µM (inactive)
15 | CC(=O)O[C@H]1C(=O)[C@]2(C)[C@@H](OC(=O)OCC(O)CO)C[C@H]3OC[C@@]3(OC(C)=O)[C@H]2[C@H](OC(=O)c2ccccc2)[C@]2(O)C[C@H](OC(=O)[C@H](O)[C@@H](NC(=O)c3ccccc3)c3ccccc3)C(C)=C1C2(C)C (stereo partly drawn) [PACLITAXEL CERIBATE] | < 0.01 µM (active) | < 0.01 µM (active) | < 0.01 µM (active) |  | < 0.01 µM (active) | < 0.01 µM (active) | < 0.01 µM (active) | 17 µM (inactive) | < 0.01 µM (active) | < 0.01 µM (active) | < 0.01 µM (active) | < 0.01 µM (active) | < 0.01 µM (active) | < 0.01 µM (active) | < 0.01 µM (active) | 0.0387 µM (active) | < 0.01 µM (active) |  | < 0.01 µM (active) | < 0.01 µM (active)
